pKd: −log10 of the molar value.
Biological target: Neuropeptide FF receptor 1 (Homo sapiens, UniProt Q9GZQ6)
Assay: Competitive antagonist activity at human NPFF1 receptor expressed in COS1 cells assessed as inhibition of NPVF-induced [3H]inositol phosphate accumulation after 2 hrs by liquid scintillation counting

Chain of Neuropeptide FF receptor 1 (Q9GZQ6 whole entry): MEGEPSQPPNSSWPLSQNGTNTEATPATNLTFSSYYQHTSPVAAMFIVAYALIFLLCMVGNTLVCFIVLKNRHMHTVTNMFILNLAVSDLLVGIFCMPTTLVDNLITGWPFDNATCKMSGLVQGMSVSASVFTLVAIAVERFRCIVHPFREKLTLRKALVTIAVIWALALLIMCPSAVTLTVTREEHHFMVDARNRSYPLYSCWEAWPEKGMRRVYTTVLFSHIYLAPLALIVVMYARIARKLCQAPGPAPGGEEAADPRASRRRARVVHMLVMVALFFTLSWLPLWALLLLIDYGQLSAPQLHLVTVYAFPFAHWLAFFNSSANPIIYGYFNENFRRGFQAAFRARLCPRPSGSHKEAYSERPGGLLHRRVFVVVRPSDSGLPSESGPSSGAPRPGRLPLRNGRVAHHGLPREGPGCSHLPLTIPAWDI

NC(N)=NN=CC12CC3CC(CC(C3)C1)C2
pKd: 7.38
